According to US9096538B2, “Pharmaceutical comprising PPAR agonist” (Senju Pharmaceutical Co., Ltd., priority 2005, dated 2015):

Tests used:
[1] = system: monkey meibomian gland epithelial cell; test: Test Example 3: increase in cell number, cultured monkey meibomian gland epithelial cell (Cell Counting Kit-8); assay type: cell-based, cynomolgus monkey; conditions: 48 + 48 hours; for Cell proliferation (%): no addition group = 100%, average ± standard deviation, N = 5
Protocol: A female cynomolgus monkey (Environmental Biological Life Science Research Center) was used. The experimental animal was used according to the International Guiding Principles for Biomedical Research Involving Animals.
A meibomian gland epithelial cell was prepared from a monkey eyelid. An eyelid was isolated, and stored in Dulbecco's phosphate buffered saline (D-PBS; Invitrogen), and this was transferred to a clean bench. The following cell preparation procedures were all performed sterilely.
After the isolated eyelid was immersed in 80% ethanol for 30 seconds, the eyelid was washed with D-PBS with 1% penicillin-streptomycin (Invitrogen) added thereto three times, and transferred to a minimum essential medium (MEM; Invitrogen). A fat tissue and a muscle tissue surrounding a meibomian gland tissue were removed under a stereomicroscope, and this was transferred to MEM containing 0.475 U/mL of collagenase A (Roche Diagnostics) and 2.4 U/mL of dispase II (Roche Diagnostics), and incubated at 37° C. overnight. After completion of incubation, the enzyme-treated tissue was placed again under the stereomicroscope, eyelashes and an eyelid connective tissue were removed, and a meibomian gland tissue was isolated. To the isolated gland tissue was added 1 mL of trypsin-EDTA (Invitrogen), and this was incubated at 37° C. for 5 minutes. After incubation, to this was added 9 mL of MEM containing 10% FBS to stop the enzymatic reaction, then, suction and exhaustion were repeated five times using a 10 mL pipette and, further, five times using an injection syringe equipped with a 21 G injection needle to disperse tissue-constituting cells. […] The cell suspension which had passed through the filter was recovered in a 50 mL centrifuge tube, and subjected to centrifugation at room temperature and 1,500 rpm for 5 minutes. To a cell layer containing an objective cell obtained by centrifugation was added 80 μL of D-PBS containing 0.5% bovine serum albumin (BSA; Sigma-Aldrich) to sufficiently suspend the cell, to this was added 20 μL of Anti-Fibroblast Microbeads (Militenyi Biotec), and this was allowed to stand at room temperature for 30 minutes. After completion of the reaction with an antibody, to this was added 2 mL of D-PBS containing 0.5% BSA, and this was subjected again to centrifugation at room temperature and 1,500 rpm for 5 minutes. To a cell layer containing an objective cell obtained by centrifugation was added 1 mL of D-PBS containing 0.5% BSA to sufficiently suspend the cell, and this was added dropwise to an LD column (Militenyi Biotec) equilibrated in advance using a column washing solution (D-PBS containing 2 mM EDTA (Dojindo Laboratories) and 0.5% BSA). Then, 2 mL of the column washing solution was added dropwise to the LD column. […] The cell recovered in the centrifuge tube was subjected again to centrifugation at room temperature and 1,500 rpm for 5 minutes to remove the supernatant. To this precipitation was added 1 mL of Defined Keratinocyte-Serum Free Medium (DK-SFM; Invitrogen) to suspend the cell and thereby, a meibomian gland epithelial cell suspension was prepared. The prepared cell was seeded on a culture dish (IWAKI) for cell culturing having a diameter of 3.5 cm which had been coated with a type I collagen solution (Nitta Gelatin Inc.) in advance, and to which 3 mL of DK-SFM had been added. The seeded cell was cultured in an incubator (SANYO) set at 37° C., 5% CO2, 95% air, and 100% humidity, and the culture medium was exchanged with a fresh culture medium every 48 hours until the test day.
Each test substance was dissolved in ethanol (Wako Pure Chemical Industries, Ltd.) to a 200-fold concentration of a final concentration in the culture medium, and this was stored at −80° C. until immediately before use.
As a culture dish for a cell proliferation promotion test, a 96-well culture dish for tissue culture (Corning) was used.

[2] = system: monkey meibomian gland epithelial cell; test: Test Example 8: increase in number of monkey meibomian gland epithelial cells (Cell Counting Kit-8); assay type: cell-based; conditions: 3 x 48 hours; for Cell proliferation (%): no addition group = 100%, average ± standard deviation, N = 5
Description: For studying the effect of promoting cell proliferation by each test substance, a culture medium prepared by removing the supplement attached to DK-SFM, from DK-SFM, was used as a basal medium, while as a positive control for confirming the cell proliferation promoting effect, a culture medium with the supplement added thereto (basal medium+supplement) was used according to instructions of an DK-SFM preparation protocol. […] In the test, a monkey meibomian gland epithelial cell which had been cultured to subconfluent, suspended in a cell banker (Nippon Zenyaku Kogyo Co., Ltd.), and cryopreserved in liquid nitrogen was used. The cell which had been cryopreserved was thawed, and transferred to a 50 mL centrifuge tube and a 10-fold amount of DK-SFM was added thereto. […] Each 64 μL of this cell suspension was dispensed into each well so that the cell number per bottom area (0.32 cm^2) of the collagen-treated 96-well culture dish for tissue culture became 4×10^4 cells/cm^2. […] After 48 hours from initial culture medium exchange, the culture medium was exchanged with a freshly prepared culture medium of each of [1] to [4]. Further, after 48 hours therefrom, the culture medium was exchanged again with a freshly prepared culture medium of each of [1] to [4].

## CCCc1c(OCCCOc2ccc(OCC(=O)O)cc2)ccc(C(C)=O)c1O [L-165041, (4-(3-(4-acetyl-3-hydroxy-2-propyl)phenoxy)propoxyphenoxy)acetic acid]
[1]; 10^−6 M
  Cell proliferation (%): 142.8 ± 5.4%
[1]; 10^−7 M
  Cell proliferation (%): 136.1 ± 4.7%
[1]; p<0.01 where significant
  cell proliferation compared to the no addition group (in words): significantly higher than in the no addition group
[2]; 10^−6 M
  cell proliferation compared to the no addition group (in words): significantly higher than in the no addition group
  Cell proliferation (%): 169.1 ± 19.6%
[2]; 10^−7 M
  Cell proliferation (%): 142.9 ± 22.3%
